The text below walks through data of PMC9447431 (Journal of chemical information and modeling, 2021).

Where two headings read alike, the source gives them in different places.

Holding throughout (type): cell-based
Assay [1] deals with T1, OPRK (Homo sapiens, UniProt P41145). Put plainly: cell-based.
In assay [2] the target is T2, OPRM (Homo sapiens, UniProt P35372). Briefly: cell-based.
Assay [3] concerns the target T2, OPRM. Put plainly: cell-based. This is another data set of the same source.
Assay [4] has as its target T1, OPRK. Briefly: qHTS cAMP assay, agonist mode, HKOR cells.
Assay [5] has as its target T3, OPRD (Homo sapiens, UniProt P41143). Put plainly: qHTS cAMP assay, agonist mode, HDOR cells. Conditions: CHO-K1 cells expressing human δ-OPR (HDOR).
Assay [6] has as its target T3, OPRD. Put plainly: qHTS cAMP assay, antagonist mode, HDOR cells.
Where [7] appears, read: OPRK-agonist, CHO-K1 cells expressing human κ-OPR (HKOR), cAMP.

T1 sequence (P41145 whole entry): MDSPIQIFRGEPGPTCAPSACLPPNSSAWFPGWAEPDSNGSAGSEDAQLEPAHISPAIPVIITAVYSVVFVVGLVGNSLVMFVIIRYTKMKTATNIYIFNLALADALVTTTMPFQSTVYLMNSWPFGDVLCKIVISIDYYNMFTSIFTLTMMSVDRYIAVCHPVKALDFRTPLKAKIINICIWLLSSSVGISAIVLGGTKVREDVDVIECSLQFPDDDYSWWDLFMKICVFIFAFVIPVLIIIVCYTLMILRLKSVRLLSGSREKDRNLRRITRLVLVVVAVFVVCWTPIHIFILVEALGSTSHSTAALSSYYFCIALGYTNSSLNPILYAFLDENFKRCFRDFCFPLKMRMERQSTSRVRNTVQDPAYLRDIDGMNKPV
T2 sequence (P35372 whole entry): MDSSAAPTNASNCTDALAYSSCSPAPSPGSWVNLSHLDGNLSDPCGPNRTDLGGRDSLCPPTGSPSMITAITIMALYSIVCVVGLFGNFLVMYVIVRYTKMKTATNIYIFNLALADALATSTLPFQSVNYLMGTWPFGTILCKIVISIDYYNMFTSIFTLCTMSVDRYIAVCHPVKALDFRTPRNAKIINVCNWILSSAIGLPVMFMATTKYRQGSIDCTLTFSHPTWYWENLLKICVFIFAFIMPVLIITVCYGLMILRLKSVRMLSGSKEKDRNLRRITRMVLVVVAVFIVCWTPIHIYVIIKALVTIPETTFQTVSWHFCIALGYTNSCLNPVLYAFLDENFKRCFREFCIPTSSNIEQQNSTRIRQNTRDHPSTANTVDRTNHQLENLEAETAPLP
T3 sequence (P41143 whole entry): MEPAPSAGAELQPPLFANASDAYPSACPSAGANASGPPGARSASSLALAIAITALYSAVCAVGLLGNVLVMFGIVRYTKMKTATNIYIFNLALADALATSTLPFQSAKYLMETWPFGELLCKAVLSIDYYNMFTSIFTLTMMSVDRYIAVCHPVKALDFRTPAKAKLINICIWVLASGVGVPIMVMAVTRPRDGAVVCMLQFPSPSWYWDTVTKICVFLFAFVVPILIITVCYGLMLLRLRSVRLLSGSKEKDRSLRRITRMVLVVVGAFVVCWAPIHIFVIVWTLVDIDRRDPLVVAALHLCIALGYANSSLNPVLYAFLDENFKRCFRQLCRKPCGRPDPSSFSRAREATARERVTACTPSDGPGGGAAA

On OPRK [1], `COc1ccc(NC(=O)Cn2c(=O)n(-c3ccc(CC(=O)NCC4CCCO4)cc3)c(=O)c3ccccc32)c(OC)c1` (centres unmarked) [NCGC00106344-01] had an AC50 of 2060 nM and an IC50 of 2060 nM.
Molecule `CCCC1=Nc2cc(C(=O)N3CCC(C)CC3)ccc2Sc2ccc(C)cc21` [NCGC00107633-01] yielded an AC50 on OPRM [2] of 920 nM.
Consider `O=C(NCCCc1nc2ccccc2n1Cc1c(F)cccc1Cl)C1CCCCC1` [NCGC00114741-01], for which half-maximal activity on OPRM [2] (AC50) was put at 520 nM.
The same measure, in the same setting: under `O=C(NCCCc1nc2ccccc2n1Cc1ccccc1Cl)C1CCCCC1` [NCGC00114743-01] stands 1640 nM.
In turn, `COc1ccccc1N1CCN(Cc2cc(COC(C)C)c3cccnc3c2O)CC1` [NCGC00114968-02] showed an AC50 at OPRM [3] of 650 nM. This counts as sub-micromolar.
On OPRK [4] (setting [7]), `Cc1cc(Cl)ccc1OCC(=O)N(Cc1ccc(N(C)C)cc1)CC1CCCO1` (centres unmarked) [NCGC00117293-01] gave an AC50 of 2500 nM. This lies in the single-digit micromolar range.
`CN1CCN(C2(CNC(=O)c3ccc(C(C)(C)C)cc3)CCCCC2)CC1` [NCGC00118549-01]: half-maximal activity at OPRM [2] (AC50) was put at 460 nM. In other words, the sub-micromolar range.
For the molecule `Cc1cccc(OCC(=O)NCC2(N3CCN(C)CC3)CCCCC2)c1C` [NCGC00118605-01], on OPRM [2], the AC50 was determined as 1830 nM.
On the same count and under the same terms, to `O=C(Nc1ccccc1C(F)(F)F)N1CCC(CN2CCc3ccccc3C2)CC1` [NCGC00123899-01] belongs 920 nM.
Molecule `CCC(=O)NCC(c1ccc2c(c1)OCO2)N1CCN(c2ccccc2)CC1` (centres unmarked) [NCGC00135974-01] yielded an AC50 on OPRK [4] (setting [7]) of 1160 nM.
On OPRD [5], `CCOC(=O)c1c(NC(=O)c2ccc(S(=O)(=O)N(C)C)cc2)sc2c1CCN(C)C2` [NCGC00136158-01] showed an AC50 of 2310 nM.
As for `CCCN(CCC)S(=O)(=O)c1ccc(C(=O)Nc2sc3c(c2C(=O)OC)CCN(CC)C3)cc1` [NCGC00139128-01], the activity at OPRD [5] was half-maximal at 2060 nM (AC50).
In the case of `CCn1c(=N)n(CCOc2ccc(Br)cc2)c2ccccc21` [NCGC00141762-01], the AC50 on OPRM [2] was determined as 2060 nM. In other words, the single-digit micromolar range.
On OPRM [2], `O=C(O)c1ccc(O)c2ncc(N3CCCN(CCc4cccc5ccccc45)CC3)cc12` [NCGC00247751-02] gave an AC50 of 650 nM.
In turn, `CO[C@H]1C[C@@H]2CC[C@@H](C)[C@@](O)(O2)C(=O)C(=O)N2CCCC[C@H]2C(=O)O[C@H]([C@H](C)C[C@@H]2CC[C@@H](OP(C)(C)=O)[C@H](OC)C2)CC(=O)[C@H](C)/C=C(\C)[C@@H](O)[C@@H](OC)C(=O)[C@H](C)C[C@H](C)/C=C/C=C/C=C/1C` [NCGC00346481-02, Ridaforolimus] registered an AC50 at OPRK [4] of 130 nM. In other words, the sub-micromolar range.
With `Cc1cn(CCN2CCN(c3ccccc3-c3cc(C#N)cc(C(=O)NCCCN4CCCC4)c3)CC2)c2ccccc12` [NCGC00356417-05, LLY-507], on OPRM [2], the AC50 is 130 nM.
Molecule `O=C(NCCN1CCC(n2c(=O)[nH]c3ccccc32)CC1)c1cc2cc(F)ccc2[nH]1` [NCGC00370807-05, FIPI] yielded an AC50 on OPRM [2] of 580 nM.
On the same count and under the same terms, to `N#CC(CCCN1CCC(O)(c2ccc(Cl)cc2)CC1)(c1ccccc1)c1ccccc1` [NCGC00378719-01, VUF-2274] belongs 410 nM; to `O=C(CC(c1ccccc1)c1ccccc1)N1CCN(C(c2ccccc2)c2ccccc2)CC1` [NCGC00378879-01, NP-118809], 1830 nM; to `COc1ccccc1N1CCN(CC[C@@](C)(C(=O)C2CCCCC2)c2ccccc2)CC1` [NCGC00386484-01, LY 426965], 180 nM.
In the case of `Cc1cccc(-c2[nH]c(Cc3cccc(C(N)=O)c3)nc2-c2ccc3nccnc3c2)n1` [NCGC00386726-01, IN-1130], at OPRK [1], half-maximal activity (AC50) was put at 2060 nM and the IC50 was found to be 2060 nM.
As for `Nc1ncnc2c1nc(Cl)n2[C@@H]1O[C@@H]2COP(=O)(O)O[C@H]2[C@H]1O` [NCGC00485288-01, Tocladesine], the AC50 was determined as 1030 nM on OPRM [3], 460 nM on OPRD [6] and 920 nM at OPRK [1].
As to `Nc1ncnc2c1ncn2[C@@H]1O[C@@H]2COP(O)(=S)O[C@H]2[C@H]1O` (some centres unmarked) [NCGC00485585-01, Adenosine 3’,5’-cyclothiophosphate], the AC50 at OPRM [3] turned out to be 60 nM; at OPRD [6] (OPRD-antagonist, HDOR cells, with 2nM dynorphin B) it was 40 nM; on OPRK [1], 70 nM. Further, the IC50 was 40 to 70 nM at OPRM [3]; 40 to 70 nM against OPRD [6] (OPRD, antagonist mode, range given for all three receptors); 40 to 70 nM at OPRK [1].
